Source: patent publication US11731974B2, “N-acyl-(3-substituted)-(8-substituted)-5,6-dihydro-[1,2,4]triazolo[4,3-a]pyrazines as selective NK-3 receptor antagonists” (Ogeda SA, priority 2013, dated 2023)

Assays:
circulating LH levels = assay: Castrated male rat model, circulating levels of luteinizing hormone (LH); format: in vivo; details: single oral dose less than or equal to 30 mg/kg, p<0.05
Method: In Vivo Assay to Assess Compound Activity in Rat (Oral Dosing)
Castrated male rat model to assess the effect of compound of invention on circulating levels of luteinizing hormone (LH)
The effect of compounds of the invention to inhibit luteinizing hormone (LH) secretion is determined by the following biological studies.
In humans and rodents, castration is well-precedented to permit heightened, persistent GnRH signaling and consequent elevation of circulating LH. Thus, a castrated rat model is used to provide a broad index for measurement of LH inhibition as a marker of test compound inhibition of the GnRH signaling pathway.
Castrated adult male Sprague-Dawley (SD) rats (150-175 g) were purchased from Janvier (St Berthevin, France). All animals were housed 2 per cage in a temperature-controlled room (22±2° C.) and 50±5% relative humidity with a 12 hour/12 hour light/dark cycles (lights off at 6 h00 pm). The animals were allowed 3 weeks of postoperative recovery prior to study. Animals were handled on a daily basis. Standard diet and tap water were provided ad libitum. Animal cage litters were changed once a week. On the study day, animals were acclimated to the procedure room for a period of one hour prior to the initiation of the experiment.
Compounds of the invention were formulated in 0.5% methyl cellulose.
After basal sampling (TO) a single dose of compounds of the invention or vehicle was administrated orally to rats. Blood samples were then collected at several time points post dosing (45, 90, 150, 300 and 420 minutes). Blood samples were obtained via tail vein bleed, drawn into EDTA-containing tubes and centrifuged immediately. Plasma samples were collected and stored in a −80° C. freezer until assayed. Serum LH levels were determined using radioimmunoassay kit from RIAZEN—Rat LH, Zentech (Liege, Belgium). Baseline was defined as the initial basal blood sample.

plasma testosterone = assay: Plasma testosterone in gonad intact male rats; format: in vivo, rat; details: 3 mg/kg single oral, vs vehicle, FIG. 1
Method: The study was designed to evaluate the effect of compounds of the invention on testosterone circulating levels following oral administration at 3 mg/kg on SD gonad intact male rats.
(§1) Briefly the experimental methods used for this study were as follows:
Two groups of non-fasted rats (male, Sprague-Dawley, 200 to 225 g; n=4 rats/group) with jugular vein cannulation, were dosed via a single oral administration of compounds of the invention at 3 mg/kg. The control group was dosed with the vehicle. Compounds of the invention were prepared in a dose formulation of pyrogen-free water with 0.5% methylcellulose. Blood samples were collected via the catheter implanted in the jugular vein at pre-determined intervals using EDTA-3K as anti-coagulant. Samples were chilled and rapidly processed by centrifugation to obtain corresponding plasma samples. Testosterone hormone levels were determined by RIA performed on plasma samples collected for all the groups at 5 minutes before administration (basal time), and at 45, 90, 150, 300, 480 minutes and 24 hours after dosing.

plasma estradiol = assay: Estradiol circulating level in female rats; format: in vivo, rat; details: 10 mg/kg b.i.d. oral, two consecutive estrous cycles, FIG. 3
Method: Effect of compounds of the invention on Estradiol circulating level in female rats. The aim of this study was to evaluate the effect of compounds of the invention on plasma estradiol levels following oral administration at 10 mg/kg (b.i.d.) for a period of 10 days in female rats.
as §1
Two groups of adult, female rats (Sprague-Dawley, ˜320 g) were treated in-phase with their individual estrous cycles. […] Compounds of the invention were prepared in a dose formulation of pyrogen-free water with 0.5% methylcellulose. Estradiol levels were determined for all groups by ELISA performed on plasma samples derived from blood collections taken at 30 minutes before the daily, 9 h30 test article administration on all days presented in FIG. 3.

[1] = test system: body temperature in ovariectomized ewes; assay: In vivo assay in OVX ewes, thermoregulation; parameters: species or system ewe; details: 1 mg/kg intravenous
From the text: In Vivo Assay in OVX Ewes-Activity in Thermoregulation Experimental Methods: Evaluation of Thermoregulation in OVX Ewe […] After 4 months recovery, animals were acclimatised to housing in single pens for a period of 7 days with ad libitum access to water and […] lucerne hay. One day prior to experimentation, the animals received a jugular vein cannula ([…], Tuta Laboratories, Lane Cove, Australia). The cannula were kept patent with heparinised saline. […] Animals were fed at 12 h00. Rectal temperatures were monitored with a probe at hourly intervals throughout the experiment, starting at 7 h40 and concluding at 15 h40. […] However, this pyrogenic response to feeding in ovarectomized ewes was not observed in any animals treated with compound no 5. […] Graphical data presented as mean±SEM for vehicle-treated versus compound no 5-treated ewes (N=5/group). Statistical analyses performed by 2-way ANOVA followed by Sidak's Multiple Comparisons Test between treatment groups at the indicated time interval, *p<0.05. Conclusions: Ovariectomy in the ewe causes changes in core body temperature considered analogous to menopausal hot flashes ([…], Bryant, & Turner, 2003) to the extent that a transient, pyrogenic response to feeding is observed (Henry, Dunshea, Gould, & Clarke, 2008).

[2] = test system: serum TT, LH, FSH in women with PCOS; assay: Phase 2a clinical trial, PolyCystic Ovary Syndrome (PCOS); format: in vivo, human; details: 180 mg QD
Method: The Phase 2a trial was double blind and randomized.
Blood draws for LH, FSH and TT were taken every visit between 2 and 8 hours after drug intake (baseline and week 3-6-12). […] These blood draws were the basis for assessing the primary (TT) and secondary (LH, FSH, LH:FSH ratio) endpoints. The primary endpoint of Total Testosterone was measured according to GLP using an LC-MS/MS method.
PCOS is typically characterized by excessive ovarian androgen production, failure of ovulation, and slightly enlarged ovaries with numerous peripheral small follicles that appear as cysts. The disorder is commonly accompanied by infertility. Typically, the clinical features of PCOS are associated with hypersecretion of LH and androgens (TT) but with normal serum concentrations of FSH hormone.
Statistical analyses performed by 2-way ANOVA comparing placebo to treatment.

SMILES | circulating LH levels (circulating LH levels) | further results
Cc1nsc(-c2nnc3n2CCN(C(=O)c2ccc(Cl)c(Cl)c2)[C@@H]3C)n1 [Compound 1, (R)-(3,4-dichlorophenyl)(8-methyl-3-(3-methyl-1,2,4-thiadiazol-5-yl)-5,6-dihydro-[1,2,4]triazolo[4,3-a]pyrazin-7(8H)-yl)methanone] | significantly suppressed | –
CCc1nsc(-c2nnc3n2CCN(C(=O)c2ccc(F)cc2)[C@@H]3C)n1 [Compound 2, (R)-(3-(3-ethyl-1,2,4-thiadiazol-5-yl)-8-methyl-5,6-dihydro-[1,2,4]triazolo[4,3-a]pyrazin-7(8H)-yl)(4-fluorophenyl)methanone] | significantly suppressed | –
Cc1nsc(-c2nnc3n2CCN(C(=O)c2ccc(Cl)c(F)c2)[C@@H]3C)n1 [Compound 4, (R)-(4-chloro-3-fluorophenyl)(8-methyl-3-(3-methyl-1,2,4-thiadiazol-5-yl)-5,6-dihydro-[1,2,4]triazolo[4,3-a]pyrazin-7(8H)-yl)methanone] | significantly suppressed | –
Cc1nsc(-c2nnc3n2CCN(C(=O)c2ccc(F)cc2)[C@@H]3C)n1 [Compound 5, (R)-(4-fluorophenyl)(8-methyl-3-(3-methyl-1,2,4-thiadiazol-5-yl)-5,6-dihydro-[1,2,4]triazolo[4,3-a]pyrazin-7(8H)-yl)methanone] | significantly suppressed | plasma testosterone level (plasma testosterone): significantly suppressed; estradiol levels (plasma estradiol): significantly decreased; pyrogenic response to feeding [1]: not observed; FSH secretion [2]: preserved; LH [2]: significant decrease; LH:FSH in comparison of placebo [2]: significantly reduced; TT in comparison of placebo [2]: significantly reduced
Cc1nsc(-c2nnc3n2CCN(C(=O)c2ccc(F)c(F)c2F)[C@@H]3C)n1 [Compound 8, (R)-(8-methyl-3-(3-methyl-1,2,4-thiadiazol-5-yl)-5,6-dihydro-[1,2,4]triazolo[4,3-a]pyrazin-7(8H)-yl)(2,3,4-trifluorophenyl)methanone] | significantly suppressed | –
Cc1nsc(-c2nnc3n2CCN(C(=O)c2ccc(F)c(F)c2)[C@@H]3C)n1 [Compound 9, (R)-(3,4-difluorophenyl)(8-methyl-3-(3-methyl-1,2,4-thiadiazol-5-yl)-5,6-dihydro-[1,2,4]triazolo[4,3-a]pyrazin-7(8H)-yl)methanone] | significantly suppressed | –
CCc1noc(-c2nnc3n2CCN(C(=O)c2ccc(F)cc2)[C@@H]3C)n1 [Compound 13, (R)-(3-(3-ethyl-1,2,4-oxadiazol-5-yl)-8-methyl-5,6-dihydro-[1,2,4]triazolo[4,3-a]pyrazin-7(8H)-yl)(4-fluorophenyl)methanone] | significantly suppressed | –
Cc1nsc(-c2nnc3n2CCN(C(=O)c2ccccc2)[C@@H]3C)n1 [Compound 20, (R)-(8-methyl-3-(3-methyl-1,2,4-thiadiazol-5-yl)-5,6-dihydro-[1,2,4]triazolo[4,3-a]pyrazin-7(8H)-yl)(phenyl)methanone] | significantly suppressed | –
CCc1noc(-c2nnc3n2CCN(C(=O)c2ccc(-c4cccs4)cc2)[C@@H]3C)n1 [Compound 30, (R)-(3-(3-ethyl-1,2,4-oxadiazol-5-yl)-8-methyl-5,6-dihydro-[1,2,4]triazolo[4,3-a]pyrazin-7(8H)-yl)(4-(thiophen-2-yl)phenyl)methanone] | significantly suppressed | –
